Laboratory results taken from the NIST ThermoML archive (doi:10.1021/acs.jced.5b00804).
± gives the expanded uncertainty stated by the source.

Conditions: 101.33 kPa, Liquid; for viscosity: Capillary tube (Ostwald / Ubbelohde) method; for mass density: Pycnometric method

NCCN [ethane-1,2-diamine]
Conditions | mass density [kg/m3] | viscosity [mPa·s]
303.15 K | 890.3 ± 1.8 | 1.26 ± 0.02
308.15 K | 885.9 ± 1.8 | 1.18 ± 0.02
313.15 K | 881.7 ± 1.8 | 1.03 ± 0.01
318.15 K | 876.9 ± 1.8 | 0.938 ± 0.011
323.15 K | 871.3 ± 1.8 | 0.905 ± 0.011
